Results taken from patent publication US12570641B2, “Solid forms of a CDK4 inhibitor” (Pfizer Inc., priority 2020, dated 2026).
Values belong to the molecule of their own block, whether it stands above or below them.

Tests used:
Type in all cases: physicochemical
[1] = Moisture sorption (hygroscopicity), water sorption and desorption; details: for form change at the completion of the moisture sorption run by PXRD: 25° C.; for Weight Gain (%) at 25° C., 60% RH: comparative summary of Forms 1, 2, 6 and 8
Method: Water sorption and desorption studies were conducted on an automated vapor sorption analyzer (TA instruments Q5000 SA). The microbalance was calibrated using a 100 mg standard weight. The relative humidity (RH) sensor was calibrated at 5.0, 11.3, 32.8, 52.8, 75.3, and 84.3% RH (25° C.) using saturated salt solutions. Approximately 10-20 mg of the powder sample was placed in the quartz sample holder and dried at 3% RH at 60° C. The attainment of equilibrium was assumed when the weight change of the sample was <0.001 wt % in 5 min or by a maximum equilibration time of 300 minutes. […] Again, the attainment of equilibrium was assumed when the weight change of the sample was <0.001 wt % in 5 min or by a maximum equilibration time of 300 minutes. The weight gain at 60% RH is based on the weight after the initial drying step.
Water sorption and desorption studies of PF-07220060 monohydrate (Form 2), prepared as described in Example 2, were conducted according to General Method 6.
Water sorption and desorption studies of PF-07220060 hydrate (Form 1), prepared as described in Example 5B, were conducted according to General Method 6.
Comparative hygroscopicity experiments were performed using moisture sorption analysis according to General Method 6. PF-07220060 Forms 1, 2, 6, and 8 were evaluated using moisture sorption at 25° C., 60% RH. A form change at the completion of the run was not detected for any of the forms by PXRD.

[2] = Competitive slurry experiments in 2-propanol/1% water; details: 2-propanol/1% water, room temperature, 15 hours, PXRD
Method: Competitive slurry experiments were performed between Form 1 and Form 2 (Entry 1), and between Form 6 and Form 2 (Entry 2), in 2-propanol/1% water. Entry 1: […] The solids were collected with vacuum filtration and analyzed with PXRD. PXRD data was consistent with PF-07220060 monohydrate (Form 2). Entry 2: […] The solids were collected with vacuum filtration and analyzed with PXRD. PXRD data was consistent with PF-07220060 monohydrate (Form 2).

[3] = Thermal stability by Differential Scanning Calorimetry (DSC)
Method: Modulated Differential scanning calorimetry (DSC) measurements were performed with Discovery DSC (TA instruments) equipped with a refrigerated cooling accessory. All the experiments were performed in standard/Tzero aluminum pans. The cell constant was determined using indium and temperature calibration was performed using indium and tin as standards. All the measurements were done under continuous dry nitrogen purge (50 mL/min). Approximately 1-5 mg of solid sample was weighed into a Tzero aluminum pan, sealed non-hermetically and heated from −40° C. to 220° C. at 10° C./min heating rate. The experimental data were analyzed using commercially available software (TA Universal Analysis 2000/Trios software, TA Instruments).
(§1) Thermal stability data were obtained through thermogravimetric analysis (TGA) according to General Method 4, and Differential Scanning Calorimetry (DSC) scan according to General Method 5A.

[4] = Thermal stability by thermogravimetric analysis (TGA)
Method: Thermogravimetric analysis was conducted using a Discovery TGA (TA instruments) thermogravimetric analyzer. Samples of approximately 10 mg were weighed into aluminum pans and heated from ambient ([…]) to 250° C. at 10° C./minute heating rate under nitrogen purge (10 mL/min for both sample chamber and balance).
as §1

[5] = Slurry conversion in 10% MeCN/water, form by PXRD; details: room temperature
Method: Crystalline PF-07220060 hydrate (Form 1) (25 mg) prepared as described in Example 1, Vial A was suspended in 10% MeCN/water (0.5 mL) and slurried at room temperature for […].

form change at the completion of the moisture sorption run by PXRD ([1]; 60% RH): not detected
Weight gain (%) ([1]; 25 °C, RH 0%, listed as PF-07220060 hydrate (Form 1)): 0.05%
Weight gain (%) ([1]; 25 °C, RH 10%, desorption, listed as PF-07220060 hydrate (Form 1)): 1.26%
Weight gain (%) ([1]; 25 °C, RH 10%, sorption, listed as PF-07220060 hydrate (Form 1)): 1.23%
Weight gain (%) ([1]; 25 °C, RH 20%, desorption, listed as PF-07220060 hydrate (Form 1)): 2.38%
Weight gain (%) ([1]; 25 °C, RH 20%, sorption, listed as PF-07220060 hydrate (Form 1)): 2.34%
Weight gain (%) ([1]; 25 °C, RH 30%, desorption, listed as PF-07220060 hydrate (Form 1)): 2.87%
Weight gain (%) ([1]; 25 °C, RH 30%, sorption, listed as PF-07220060 hydrate (Form 1)): 2.84%
Weight gain (%) ([1]; 25 °C, RH 40%, desorption, listed as PF-07220060 hydrate (Form 1)): 3.13%
Weight gain (%) ([1]; 25 °C, RH 40%, sorption, listed as PF-07220060 hydrate (Form 1)): 3.10%
Weight gain (%) ([1]; 25 °C, RH 50%, desorption, listed as PF-07220060 hydrate (Form 1)): 3.30%
Weight gain (%) ([1]; 25 °C, RH 50%, sorption, listed as PF-07220060 hydrate (Form 1)): 3.26%
Weight gain (%) ([1]; 25 °C, RH 60%, desorption, listed as PF-07220060 hydrate (Form 1)): 3.41%
Weight gain (%) ([1]; 25 °C, RH 60%, sorption, listed as PF-07220060 hydrate (Form 1)): 3.37%
Weight gain (%) ([1]; 25 °C, RH 70%, desorption, listed as PF-07220060 hydrate (Form 1)): 3.49%
Weight gain (%) ([1]; 25 °C, RH 70%, sorption, listed as PF-07220060 hydrate (Form 1)): 3.46%
Weight gain (%) ([1]; 25 °C, RH 80%, desorption, listed as PF-07220060 hydrate (Form 1)): 3.55%
Weight gain (%) ([1]; 25 °C, RH 80%, sorption, listed as PF-07220060 hydrate (Form 1)): 3.53%
Weight gain (%) ([1]; 25 °C, RH 90%, listed as PF-07220060 hydrate (Form 1)): 3.61%
Weight gain (%) ([1]; 60 °C, RH 0% (initial drying step)): 0.00%
Weight Gain (%) at 25° C., 60% RH [1]: ~3%
Out-going form [2]: converted to Form 2
Thermal stability via DSC (° C.) ([3]; listed as Form 1 (hydrate)): 0 °C
Thermal stability via TGA (° C.) ([4]; listed as Form 1 (hydrate)): 20 °C
SMILES: CC(C)n1c(C(C)(C)O)nc2c(F)cc(-c3nc(N[C@@H]4CCOC[C@H]4O)ncc3Cl)cc21 [Form 1, 1,5-anhydro-3-({5-chloro-4-[4-fluoro-2-(2-hydroxypropan-2-yl)-1-(propan-2-yl)-1H-benzimidazol-6-yl]pyrimidin-2-yl}amino)-2,3-dideoxy-D-threo-pentitol]
form after slurry by PXRD [5]: converted to PF-07220060 monohydrate (Form 2)

form change at the completion of the moisture sorption run by PXRD ([1]; 60% RH): not detected
Weight Gain (%) at 25° C., 60% RH [1]: <1%
hygroscopicity relative to Form 8 and Form 1 ([1]; moisture sorption at 25° C., 60% RH): reduced hygroscopicity
Out-going form [2]: converted to Form 2
thermal stability relative to Form 1 and Form 8 ([3]; TGA and DSC): improved thermal stability
Thermal stability via DSC (° C.) ([3]; listed as Form 6 (anhydrous)): 195 °C
Thermal stability via TGA (° C.) ([4]; listed as Form 6 (anhydrous)): 195 °C
SMILES: CC(C)n1c(C(C)(C)O)nc2c(F)cc(-c3nc(N[C@@H]4CCOC[C@H]4O)ncc3Cl)cc21 [Form 6, 1,5-anhydro-3-({5-chloro-4-[4-fluoro-2-(2-hydroxypropan-2-yl)-1-(propan-2-yl)-1H-benzimidazol-6-yl]pyrimidin-2-yl}amino)-2,3-dideoxy-D-threo-pentitol]

form change at the completion of the moisture sorption run by PXRD ([1]; 60% RH): not detected
Weight Gain (%) at 25° C., 60% RH [1]: ~2%
Thermal stability via DSC (° C.) ([3]; listed as Form 8 (amorphous)): −10 °C
Thermal stability via TGA (° C.) ([4]; listed as Form 8 (amorphous)): 20 °C
SMILES: CC(C)n1c(C(C)(C)O)nc2c(F)cc(-c3nc(N[C@@H]4CCOC[C@H]4O)ncc3Cl)cc21 [Form 8, 1,5-anhydro-3-({5-chloro-4-[4-fluoro-2-(2-hydroxypropan-2-yl)-1-(propan-2-yl)-1H-benzimidazol-6-yl]pyrimidin-2-yl}amino)-2,3-dideoxy-D-threo-pentitol]
